Test system: ethanol-responsive essential tremor
Assay: Five-patient open-label trial of sodium oxybate, blinded WHIGET tremor rating (patients #4, 5)
Type: in vivo, human
Conditions: for WHIGET TOTAL SUSTENTION score: range 0-6; for Rx effect, WHIGET TOTAL ACTION (improvement in tremor): listed as sodium oxybate, monosodium salt
Text: Five patients were enrolled in a trial from the Movement Disorders Division of Columbia University Medical Center during the fall of 2004. All patients were afflicted with hyperkinetic movement disorders that responded to ethanol (defined as a noticeable change to the patient), and all were refractory to treatment with conventional medications or could not tolerate them. The Medical Center's Institutional Review Board approved the trial, and written and verbal informed consent were obtained from all patients prior to enrollment.
The dose and timing of all other drugs were kept constant throughout the trial, and patients were not withdrawn from other medications. Patients #1-3 were examined and videotaped using the Unified Myoclonus Rating Scale (UMRS), and patients #4 and 5 were examined and videotaped using the Washington Heights Inwood Tremor Rating Scale (WHIGET) (see Appendix I). Frucht S. J., et al. Adv Neurol 89:361-76 (2002); Louis, E. D., et al. Mov Disord 16:89-93 (2001).
Side effects were defined as either minor or serious (leading to hospitalization) using good clinical practice standards (www.who.int/medicines/library/par/ggcp/GCPGuidePharmatrials), and patients were asked to report side effects at each visit. After initial examination and videotaping, patients were given 1 gm of sodium oxybate by mouth (2 ml of the standard 0.5 gm/ml solution dissolved in 60 ml of water). One hour later, the senior author repeated the examination and videotaping. […] After two weeks taking 2 gm twice daily, the procedure was repeated after a 3 gm office dose, and finally two weeks after receiving 3 gm twice daily, the procedure was repeated after a 4 gm office dose. The maximum dose allowed in the trial was 4 gm twice daily. Patients and the senior author determined at each visit whether or not to proceed to the next dose level, based principally on their ability to tolerate the most recent dose regimen. After deciding on a maximum tolerated dose, patients received a dose in the office 0.5 gm less and the examination was videotaped.
The entire videotape segments and patient-writing samples from each visit were copied, and were blinded to trial order and identifying features, and were randomly ordered for review using a random number table. A movement disorder expert blinded to trial design and dose schedule, scored each videotape. Sub-scores for each visit were calculated as described previously. Frucht S. J., et al. Adv Neurol 89:361-76 (2002). We modified section 5 of the UMRS in which functional performance (pouring water, using a soup spoon) is performed only with the dominant arm (section V). […] This increased the maximum score of section 5 of the UMRS from 20 to 28.

O=C([O-])CCCO.[Na+] [GHB, 4-hydroxybutanoic acid monosodium salt]
WHIGET TOTAL ACTION score (patient 4, 1 gm, range 0-40, 0 gm score 19.5): 10 | WHIGET TOTAL SUSTENTION score (patient 4, 1.5 gm, 0 gm score 2.5): 0.5 | WHIGET TOTAL ACTION score (patient 4, 1.5 gm, range 0-40, 0 gm score 19.5): 4 | WHIGET TOTAL SUSTENTION score (patient 4, 2 gm, 0 gm score 2.5): 0 | WHIGET TOTAL ACTION score (patient 4, 2 gm, range 0-40, 0 gm score 19.5): 5 | Rx effect, WHIGET TOTAL ACTION (improvement in tremor) (patient 4): 79% | WHIGET TOTAL ACTION score (patient 5, 1 gm, 0 gm score 23): 19 | WHIGET TOTAL ACTION score (patient 5, 1.5 gm, 0 gm score 23): 13.5 | WHIGET TOTAL SUSTENTION score (patient 5, 1.5 gm, 0 gm score 4): 2.5 | WHIGET TOTAL ACTION score (patient 5, 2 gm, 0 gm score 23): 12 | WHIGET TOTAL SUSTENTION score (patient 5, 2 gm, 0 gm score 4): 3 | Rx effect, WHIGET TOTAL ACTION (improvement in tremor) (patient 5): 48% | Blinded rating of the severity of torticollis (patient #4, 1 gm twice-daily dose, before: moderate): mild | kinetic tremor amplitude (patient #4, after 2 gm): markedly diminished | kinetic tremor amplitude (patient #5, after 2 gm): the amplitude has diminished

— US20090137565A1, “Method for treatment of movement disorders” (The Trustees of Columbia University in the City of New York, priority 2004, published 2009)
